Here are results for 48 compounds from patent publication US8946238B2, “Pyrazolo[1,5-A]pyrimidines as antiviral agents” (Gilead Sciences, Inc., priority 2011, dated 2015).

For this assay, the system named is RSV strain A2. Briefly: RSV antiviral cytoprotection assay in Hep2 cells (RSV-induced cytopathic effect, Cell TiterGlo). The assay is classed as cell-based, Respiratory Syncytial Virus (RSV). The note with it: human respiratory syncytial virus, HEp-2, 0.5 μM compound; RSV A2-infected Hep2 cells; % inhibition calculated from 4-parameter dose response curve, normalized to 0% and 100%; read-out: Percent inhibition at 0.5 μM. The protocol:
Antiviral activity against RSV was determined using an in vitro cytoprotection assay in Hep2 cells. […] The method used was similar to methods previously described in published literature (Chapman et al., Antimicrob Agents Chemother. 2007, 51(9):3346-53.)
Hep2 cells were obtained from ATCC (Manassas, VI) and maintained in MEM media supplemented with 10% fetal bovine serum and penicillin/streptomycin. Cells were passaged twice a week and kept at subconfluent stage. Commercial stock of RSV strain A2 (Advanced Biotechnologies, Columbia, Md.) was titered before compound testing to determine the appropriate dilution of the virus stock that generated desirable cytopathic effect in Hep2 cells.
For antiviral tests, Hep2 cells were seeded into 96-well plates 24 hours before the assay at a density of 3,000 cells/well. On a separate 96 well plate, compounds to be tested were serially diluted in cell culture media. Eight concentrations in 3-fold serial dilution increments were prepared for each tested compound and 100 uL/well of each dilution was transferred in duplicate onto plates with seeded Hep2 cells. Subsequently, appropriate dilution of virus stock previously determined by titration was prepared in cell culture media and 100 uL/well was added to test plates containing cells and serially diluted compounds. Each plate included three wells of infected untreated cells and three wells of uninfected cells that served as 0% and 100% virus inhibition control, respectively. Following the infection with RSV, testing plates were incubated for 4 days in a tissue culture incubator. After the incubation, RSV-induced cytopathic effect was determined using a Cell TiterGlo reagent (Promega, Madison, Wis.) followed by a luminescence read-out. The percentage inhibition was calculated for each tested concentration relative to the 0% and 100% inhibition controls and the EC50 value for each compound was determined by non-linear regression as a concentration inhibiting the RSV-induced cytopathic effect by 50%. Ribavirin (purchased from Sigma, St. Louis, Mo.) was used as a positive control for antiviral activity.
Compounds were also tested for antiviral activity against RSV in Hep2 cells using a 384 well format. Compounds were diluted in DMSO using a 10-step serial dilution in 3-fold increments via automation in 4 adjacent replicates each. Eight compounds were tested per dilution plate. 0.4 uL of diluted compounds were then stamped via Biomek into 384-well plates (Nunc 142761 or 164730 w/lid 264616) containing 20 μL of media (Mediatech Inc. MEM supplemented with Glutamine, 10% FBS and Pen/Strep). DMSO and a suitable positive control compound, such as 80 μM GS-329467 or 10 μM 427346 was used for the 100% and 0% cell killing controls, respectively.
Hep2 cells (1.0×10^5 cells/ml) were prepared as above in batch to at least 40 mls excess of the number of sample plates (8 mls cell mix per plate) and infected with vendor supplied (ABI) RSV strain A2 to arrive at an MOI of 1:1000 (virus:cell #) or 1:3000 (vol virus: cell vol). Immediately after addition of virus, the RSV infected Hep2 cell suspension was added to each stamped 384-well plate at 20 μl per well using a uFlow dispenser, giving a final volume of 40 μL/well, each with 2000 infected cells. The plates were then incubated for 5 days at 37° C. and 5% CO2. Following incubation, the plates were equilibrated to room temperature in a biosafety cabinet hood for 1.5 hrs and 40 μL of Cell-Titer Glo viability reagent (Promega) was added to each well via uFlow. Following a10-20 minute incubation, the plates were read using an EnVision or Victor Luminescence plate reader (Perkin-Elmer). The data was then uploaded and analyzed on the Bioinformatics portal under the RSV Cell Infectivity and 8-plate EC50-Hep2-384 or 8-plate EC50-Hep2-Envision protocols. […]
Turning to `Cc1noc(-c2ccccc2C(=O)N2CCCC[C@H]2c2cc3nc(N4CC[C@H](N)C4)c(C)cn3n2)n1` [Compound 47], the inhibition – broadly, the change of the read-out against control, counted positive when it falls – at 0.5 µM was 90%. Under `Cc1cn2nc([C@@H]3CCCCN3C(=O)c3cc(F)cc4c3OCOC4)cc2nc1N1CC[C@H](N)C1` [Compound 48] stands 100%. Under `Cc1ccc(C(=O)N2CCCC[C@H]2c2cc3nc(N4CC[C@H](N)C4)c(C)cn3n2)c(Cl)c1` [Compound 49] stands 99%. With `Cc1cn2nc([C@@H]3CCCCN3C(=O)c3ccc4cccnc4n3)cc2nc1N1CC[C@H](N)C1` [Compound 50], the inhibition at 0.5 µM was 15%.

`COc1cc2c(cc1C(=O)N1CCCC[C@H]1c1cc3nc(N4CC[C@H](N)C4)c(C)cn3n1)CCC2` [Compound 51]: the inhibition at 0.5 µM was 100%. Under `Cc1cn2nc([C@@H]3CCCCN3C(=O)c3ccc4cccc(F)c4n3)cc2nc1N1CC[C@H](N)C1` [Compound 52] stands 71%.

On to `Cc1cn2nc([C@@H]3CCCCN3C(=O)c3[nH]c4c(C)ccc(C)c4c3C)cc2nc1N1CC[C@H](N)C1` [Compound 53], for which the inhibition at 0.5 µM is 25%. Under `Cc1cn2nc([C@@H]3CCCCN3C(=O)c3cccc4ccnn34)cc2nc1N1CC[C@H](N)C1` [Compound 54] stands 100%; under `Cc1cc(C)n2c(C(=O)N3CCCC[C@H]3c3cc4nc(N5CC[C@H](N)C5)c(C)cn4n3)nnc2n1` [Compound 55], 5%; under `Cc1cn2nc([C@@H]3CCCCN3C(=O)c3c(Cl)nc4ccccn34)cc2nc1N1CC[C@H](N)C1` [Compound 56], 84%. Under `Cc1cn2nc([C@@H]3CCCCN3C(=O)c3cc4c(OC(F)F)cccc4[nH]3)cc2nc1N1CC[C@H](N)C1` [Compound 57] stands 13%; under `Cc1ccc(S(C)(=O)=O)cc1C(=O)N1CCCC[C@H]1c1cc2nc(N3CC[C@H](N)C3)c(C)cn2n1` [Compound 58], 61%.

Take `Cc1ccc(S(N)(=O)=O)cc1C(=O)N1CCCC[C@H]1c1cc2nc(N3CC[C@H](N)C3)c(C)cn2n1` [Compound 59]: the inhibition at 0.5 µM was 52%. The same measure for `Cc1cn2nc([C@@H]3CCCCN3C(=O)c3cccc4c3CCCN4)cc2nc1N1CC[C@H](N)C1` [Compound 60]: 100%; for `Cc1cn2nc([C@@H]3CCCCN3C(=O)c3cccc4c3OCO4)cc2nc1N1CC[C@H](N)C1` [Compound 61]: 100%.

Turning to `Cc1cn2nc([C@@H]3CCCCN3C(=O)c3cc(F)cc4nc(C)c(C)nc34)cc2nc1N1CC[C@H](N)C1` [Compound 62], the inhibition at 0.5 µM was 11%. The same measure for `Cc1cn2nc([C@@H]3CCCCN3C(=O)c3cc(Cl)ccc3OC(C)C)cc2nc1N1CC[C@H](N)C1` [Compound 63]: 100%; for `Cc1cc(C(=O)N2CCCC[C@H]2c2cc3nc(N4CC[C@H](N)C4)c(C)cn3n2)c2[nH]ncc2c1` [Compound 64]: 100%; for `Cc1cn2nc([C@@H]3CCCCN3C(=O)c3cccc4c3OCC(=O)N4)cc2nc1N1CC[C@H](N)C1` [Compound 65]: 97%. For `Cc1cn2nc([C@@H]3CCCCN3C(=O)c3ccccc3OC3CCCC3)cc2nc1N1CC[C@H](N)C1` [Compound 66], the inhibition at 0.5 µM was 95%. The same measure for `CCS(=O)(=O)c1ccc(F)c(C(=O)N2CCCC[C@H]2c2cc3nc(N4CC[C@H](N)C4)c(C)cn3n2)c1` [Compound 67]: 21%; for `Cc1cn2nc([C@@H]3CCCCN3C(=O)c3ccc4ncccc4c3)cc2nc1N1CC[C@H](N)C1` [Compound 68]: 37%; for `Cc1cn2nc([C@@H]3CCCCN3C(=O)c3ccccc3Cl)cc2nc1N1CC[C@H](N)C1` [Compound 69]: 100%. Under `Cc1cn2nc([C@@H]3CCCCN3C(=O)c3cccc(CO)n3)cc2nc1N1CC[C@H](N)C1` [Compound 70] stands 56%. `Cc1cn2nc([C@@H]3CCCCN3C(=O)c3ncccc3F)cc2nc1N1CC[C@H](N)C1` [Compound 71]: the inhibition at 0.5 µM was 98%. The same measure for `Cc1cn2nc([C@@H]3CCCCN3C(=O)c3ccc(F)c(F)c3C)cc2nc1N1CC[C@H](N)C1` [Compound 72]: 100%; for `Cc1cn2nc([C@@H]3CCCCN3C(=O)c3ccc(F)cc3F)cc2nc1N1CC[C@H](N)C1` [Compound 73]: 99%. The same measure for `Cc1cn2nc([C@@H]3CCCCN3C(=O)c3nc(Cl)ccc3Cl)cc2nc1N1CC[C@H](N)C1` [Compound 74]: 100%.

As to `Cc1cc(F)c(F)cc1C(=O)N1CCCC[C@H]1c1cc2nc(N3CC[C@H](N)C3)c(C)cn2n1` [Compound 75], the inhibition at 0.5 µM was 100%.

Take `Cc1cn2nc([C@@H]3CCCCN3C(=O)c3ncccc3Br)cc2nc1N1CC[C@H](N)C1` [Compound 76]: the inhibition at 0.5 µM was 99%. Under `Cc1cc(F)ccc1C(=O)N1CCCC[C@H]1c1cc2nc(N3CC[C@H](N)C3)c(C)cn2n1` [Compound 77] stands 100%. The same measure for `Cc1ccc(F)cc1C(=O)N1CCCC[C@H]1c1cc2nc(N3CC[C@H](N)C3)c(C)cn2n1` [Compound 78]: 100%; for `Cc1cn2nc([C@@H]3CCCCN3C(=O)c3c(F)cccc3F)cc2nc1N1CC[C@H](N)C1` [Compound 79]: 100%; for `Cc1cn2nc([C@@H]3CCCCN3C(=O)c3cccc(-c4ccccc4)n3)cc2nc1N1CC[C@H](N)C1` [Compound 80]: 14%. Under `Cc1cn2nc([C@@H]3CCCCN3C(=O)c3cccc(F)n3)cc2nc1N1CC[C@H](N)C1` [Compound 81] stands 96%. Consider `Cc1cn2nc([C@@H]3CCCCN3C(=O)c3c(F)cccc3Cl)cc2nc1N1CC[C@H](N)C1` [Compound 82], for which the inhibition at 0.5 µM was 100%.

For `Cc1cn2nc([C@@H]3CCCCN3C(=O)c3cc(Cl)ccn3)cc2nc1N1CC[C@H](N)C1` [Compound 83], the inhibition at 0.5 µM is 99%.

For `COc1cccc(C(=O)N2CCCC[C@H]2c2cc3nc(N4CC[C@H](N)C4)c(C)cn3n2)c1C` [Compound 84], the inhibition at 0.5 µM is 100%. In the case of `COc1cc(C)c(C(=O)N2CCCC[C@H]2c2cc3nc(N4CC[C@H](N)C4)c(C)cn3n2)cc1C` [Compound 85], the inhibition at 0.5 µM is 100%. Under `Cc1cn2nc([C@@H]3CCCCN3C(=O)c3cc(C(F)(F)F)ccn3)cc2nc1N1CC[C@H](N)C1` [Compound 86] stands 80%; under `Cc1cn2nc([C@@H]3CCCCN3C(=O)c3cccc(C)c3C)cc2nc1N1CC[C@H](N)C1` [Compound 87], 100%; under `Cc1cn2nc([C@@H]3CCCCN3C(=O)c3c(C)cccc3C)cc2nc1N1CC[C@H](N)C1` [Compound 88], 100%. With `Cc1ccc(Cl)c(C(=O)N2CCCC[C@H]2c2cc3nc(N4CC[C@H](N)C4)c(C)cn3n2)c1` [Compound 89], the inhibition at 0.5 µM was 100%.

Consider `Cc1ccc(Br)c(C(=O)N2CCCC[C@H]2c2cc3nc(N4CC[C@H](N)C4)c(C)cn3n2)c1` [Compound 90], for which the inhibition at 0.5 µM was 100%. In the case of `COc1cc(C)ccc1C(=O)N1CCCC[C@H]1c1cc2nc(N3CC[C@H](N)C3)c(C)cn2n1` [Compound 92], the inhibition at 0.5 µM was 100%.

As for `Cc1cn2nc([C@@H]3CCCCN3C(=O)c3ccc(Cl)cn3)cc2nc1N1CC[C@H](N)C1` [Compound 93], the inhibition at 0.5 µM is 44%. Under `COc1cc2ccccc2cc1C(=O)N1CCCC[C@H]1c1cc2nc(N3CC[C@H](N)C3)c(C)cn2n1` [Compound 94] stands 88%. The same measure for `Cc1cnc2c(C(=O)N3CCCC[C@H]3c3cc4nc(N5CC[C@H](N)C5)c(C)cn4n3)c(Cl)ccc2c1` [Compound 95]: 21%.
